Among the data in patent US5248677A, “Biogentic amine uptake inhibitors” (priority 1992, dated 1993) are IC50 values, retold here.

What all share (type): biochemical, rat (Male Sprague-Dawley)
One assay deals with norepinephrine uptake. Put plainly: NE (norepinephrine) uptake inhibition, synaptosomal preparation (hypothalamus). The settings on record: rat hypothalamus synaptosomes, 0.1 μM tritiated amine, 37° C., 4 minutes. On the procedure: (§1) For the purpose of identifying compounds as biogenic amine uptake inhibitors capable of interacting with the uptake carrier, ligand-carrier binding assays were carried out as an initial sceen.
(§2) Male Sprague-Dawley derived rats, weighing about 180-250 g each (purchased from Sasco Animal Laboratories, Oregon, Wis.) were sacrificed by decapitation. The brains were immediately removed, placed on a chilled glass plate and dissected according to a modification of the method of Glowinski and Iversen (J. Glowinski and L. L. Iversen, J Neurochem, 1966, 13: 655-669). First, the rhombencephalon was separated by a transverse section and discarded. The rest of the brain was divided into two portions by making another transverse section at the level of the optic chiasma. The hypothalamus, which was used for norepinephrine uptake studies, was removed from the posterior part by using the anterior commissure as the horizontal reference point and a line between the posterior hypothalamus and mammillary bodies as the caudal limit. The striatum, which was used for dopamine uptake studies, was also dissected from the posterior portion using the external wall of the lateral ventricle as the internal limit and the corpus collosum as the external limit. The frontal parts of the striatum were removed from the anterior portion of the cerebrum and combined with the striatal tissue from the posterior segment. The cortex, which was used for serotonin uptake studies, was composed of the rest of the anterior portion of the cerebrum and the cortical surfaces removed from the posterior segment. The hypothalamus and the striatum each weighed about 100 mg or slightly less, whereas the cortex weighed up to 800 mg. The tissues were placed in a cold Potter-Elvehjem glass homogenizer with 5 (cortex) or 10 (hypothalamus) or 20 (striatum) volumes of ice-cold 0.32M sucrose, pH 7, and homogenized by hand. The homogenate was centrifuged (on a Multifuge®, American Scientific Products) at 2500 rpm for 10 minutes in a refrigerated room (~4° C.). The supernatant fraction containing the synaptosomes was decanted, mixed thoroughly and kept on crushed ice for use in the uptake studies.
(§3) Uptake studies were conducted according to the method of Snyder and Coyle (S. H. Snyder and J. T. Coyle, J Pharmacol Exp Ther, 1969, 165: 78-86) with minor modifications. Usually a 0.1 mL aliquot of the synaptosomal preparation was incubated in a mixture of 0.75 mL of modified Krebs-Ringerbuffer, 0.05 mL of the drug being tested, and 0.1 mL of a 1 μM solution of the labeled (tritiated) amine (final concentration 0.1 μM), for a total volume of 1 mL. The modified Krebs-Ringer bicarbonate buffer used in these studies contained 118 mM sodium chloride, 4 mM potassium chloride, 1.3 mM calcium chloride, 1.12 mM potassium dihydrogen phosphate, 1.2 mM magnesium sulfate and 24 mM sodium bicarbonate, with the addition of 5 mM glucose, 0.15 mM disodium EDTA, 12.5 μM nialamide and 1 mM ascorbic acid. Uptake was initiated by the addition of the tritiated amine and the mixture was incubated at 37° C. in a Dubnoff Metabolic Shaking Incubator for 4 minutes. A preincubation period was not included since it had been reported that results were similar with and without preincubation of the synaptosomal preparation (G. Vosmer, et al. Biochem Pharmacol, 1980, 24: 2557-2562). Control incubations without the test drug were conducted at 37° C. to determine total uptake and at 0° C. (in a crushed ice bath) to correct for the diffusion of the tritiated amine into the synaptosomes and/or binding.
(§4) Filtration was used to terminate uptake and collect the synaptosomes (C. A. Csernansky, et al. J Pharmacol Methods, 1985, 13: 187-191). In the filtration technique, the incubation mixture was diluted with ice-cold 0.9% aqueous sodium chloride solution and filtered through GF/B glass microfiber filters (Whatman) under reduced pressure. […]

The next assay has as its system 5-HT (serotonin) uptake. Put plainly: 5-HT (serotonin) uptake inhibition, synaptosomal preparation (cortex). To be noted: 5-hydroxytryptamine, rat cortex synaptosomes, 0.1 μM tritiated amine, 37° C., 4 minutes. On the procedure:
as §1, §2, §3, §4

Another assay concerns dopamine uptake. Put plainly: DA (dopamine) uptake inhibition, synaptosomal preparation (striatum). To be noted: rat striatum synaptosomes, 0.1 μM tritiated amine, 37° C., 4 minutes. The method, then:
as §1, §2, §3, §4

Structures can show the parent of a compound that is named as a salt. A value given as a limit tells only on which side of the number the result lay.

Take `COc1ccc2c(c1)CCC1C(Cc3ccccc3)NCC21` (mixture of isomers) [Example 1, cis/trans 2,3,3a,4,5,9b-Hexahydro-7-methoxy-3-phenylmethyl-1H-benz[e]isoindole hydrochloride]: the results for the 50% inhibitory concentration (IC50) with norepinephrine uptake (hydrochloride), in the assay with 5-HT (serotonin) uptake (hydrochloride) and with dopamine uptake (hydrochloride) were 524 nM, 7290 nM and 7620 nM, respectively.
Take `COc1ccc2c(c1)CC[C@H]1[C@@H]2CN(C)[C@@H]1Cc1ccccc1` (relative stereo) [Example 8, cis-anti-2,3,3a,4,5,9b-Hexahydro-7-methoxy-2-methyl-3-phenylmethyl-1H-benz[e]isoindole methanesulfonic acid salt]: the 50% inhibitory concentration (IC50) (as a rule, the point on the concentration scale where inhibition reaches its midpoint) in the assay on norepinephrine uptake was 120 nM; in the assay on 5-HT (serotonin) uptake, 2700 nM; with dopamine uptake it was 4700 nM.
For `CC1C[C@H]2c3ccccc3CC[C@H]2CN1Cc1ccccc1` (relative stereo) [Example 71A, cis-2-Methyl-1,2,3,4,4a,5,6,10b-octahydro-3-phenylmethyl-benz[f]isoquinoline], in that order: 9.8 nM, 2120 nM and 450 nM.
As to `CC1C[C@H]2c3ccccc3CC[C@H]2CN1Cc1ccccc1` (relative stereo) [Example 71B, cis-2-Methyl-1,2,3,4,4a,5,6,10b-octahydro-3-phenylmethyl-benz[f]isoquinoline], the 50% inhibitory concentration (IC50) stood at 11.9 nM in the assay on norepinephrine uptake, 2050 nM in the assay with 5-HT (serotonin) uptake and 633 nM in the assay on dopamine uptake.
As for `CN1C[C@@H]2c3ccccc3CC[C@@H]2CCC1Cc1ccccc1` (relative stereo) [Example 77, (+)-cis-2-Methyl-1,3,4,5,5a,6,7,11b-octahydro-3-phenylmethyl-2H-naphth[1,2-c]azepine hydrochloride], the half-inhibitory concentration (IC50) in the assay on norepinephrine uptake amounted to 190 nM; in the assay on 5-HT (serotonin) uptake it was 4170 nM; in the assay on dopamine uptake, 5170 nM.
Consider `CN1CC2c3ccccc3CCC2C1Cc1cccc(Cl)c1` (single isomer, unassigned) [Example 47, 3-(3-Chlorophenyl)methyl-2,3,3a,4,5,9b-hexahydro-2-methyl-1H-benz[e]isoindole hydrochloride], for which the IC50 was 41 nM in the assay on norepinephrine uptake, 1260 nM in the assay with 5-HT (serotonin) uptake and 225 nM with dopamine uptake.
For the compound `CN1CC2c3ccccc3CCC2CCC1Cc1ccccc1` (single isomer, unassigned) [Example 75A, cis-2-Methyl-1,3,4,5,5a,6,7,11b-octahydro-3-phenylmethyl-2H-naphth[1,2-c]azepine hydrochloride], the IC50 is 30 nM in the assay on norepinephrine uptake (hydrochloride), 227 nM in the assay with 5-HT (serotonin) uptake (hydrochloride) and 444 nM with dopamine uptake (hydrochloride).
Taken in the same sequence, the figures for `CN1CC2c3ccccc3CCC2CCC1Cc1ccccc1` (single isomer, unassigned) [Example 75B, cis-2-Methyl-1,3,4,5,5a,6,7,11b-octahydro-3-phenylmethyl-2H-naphth[1,2-c]azepine hydrochloride] were 513 nM, 4130 nM and 2810 nM.
Consider `COc1cccc2c1CCC1CCC(Cc3ccccc3)N(C)CC21` (single isomer, unassigned) [Example 76A, 8-Methoxy-2-methyl-1,3,4,5,5a,6,7,11b-octahydro-3-phenylmethyl-2H-naphth[1,2-c]azepine hydrochloride], for which the IC50 was 3.5 nM in the assay on norepinephrine uptake (hydrochloride), 386 nM in the assay on 5-HT (serotonin) uptake (hydrochloride) and 529 nM in the assay on dopamine uptake (hydrochloride).
On to `COc1cccc2c1CCC1CCC(Cc3ccccc3)N(C)CC21` (single isomer, unassigned) [Example 76B, 8-Methoxy-2-methyl-1,3,4,5,5a,6,7,11b-octahydro-3-phenylmethyl-2H-naphth[1,2-c]azepine hydrochloride], for which the IC50 with norepinephrine uptake (hydrochloride) came to 234 nM; with 5-HT (serotonin) uptake (hydrochloride), 344 nM; with dopamine uptake (hydrochloride) it was 2190 nM.
As to `CN1CC2c3ccccc3CCC2CCC1Cc1ccccc1` (single isomer, unassigned; (-)) [Example 78, (-) 2-Methyl-1,3,4,5,5a,6,7,11b-octahydro-3-phenylmethyl-2H-naphth[1,2-c]azepine hydrochloride], the IC50 was 9.7 nM with norepinephrine uptake, under 1000 nM in the assay on 5-HT (serotonin) uptake and 189 nM with dopamine uptake.
Consider `COc1ccc2c(c1)CCC1C2CN(C)C1Cc1ccccc1` (stereo not drawn) [Example 2, cis-2,3,3a,4,5,9b-Hexahydro-7-methoxy-2-methyl-3-phenylmethyl-1H-benz[e]isoindole methanesulfonic acid salt], for which the half-inhibitory concentration (IC50) in the assay on norepinephrine uptake is 58 nM; in the assay on 5-HT (serotonin) uptake, 4160 nM; in the assay on dopamine uptake, 182 nM.
Taken in the same sequence, the figures for `CCN1CC2c3ccc(OC)cc3CCC2C1Cc1ccccc1` (stereo not drawn) [Example 3, cis-2-Ethyl-2,3,3a,4,5,9b-hexahydro-7-methoxy-3-phenylmethyl-1H-benz[e]isoindole methanesulfonate salt] were 18 nM, 1400 nM and 225 nM.
For `COc1ccc2c(c1)CCC1C(Cc3ccccc3)NCC21` (stereo not drawn) [Example 6, trans-2,3,3a,4,5,9b-Hexahydro-7-methoxy-3-phenylmethyl-1H-benz[e]isoindole methanesulfonic acid salt], in that order: 543 nM, 6510 nM and 10100 nM.
Taken in the same sequence, the figures for `COc1ccc2c(c1)CCC1C2CN(C)C1Cc1ccccc1` (stereo not drawn) [Example 7, trans-2,3,3a,4,5,9b-Hexahydro-7-methoxy-2-methyl-3-phenylmethyl-1H-benz[e]isoindole] were 322 nM, 12200 nM and 13400 nM.
As to `CN1CC2c3ccccc3CCC2C1Cc1ccccc1` (stereo not drawn) [Example 9, cis-2,3,3a,4,5,9b-Hexahydro-2-methyl-3-phenylmethyl-1H-benz[e]isoindole methanesulfonic acid salt], the half-maximal inhibitory concentration (IC50) with norepinephrine uptake was 48 nM; in the assay with 5-HT (serotonin) uptake, 6600 nM; in the assay on dopamine uptake, 540 nM.
Turning to `CN1CC2c3ccccc3CCC2C1Cc1ccccc1` (stereo not drawn) [Example 10, trans-2,3,3a,4,5,9b-Hexahydro-2-methyl-3-phenylmethyl-1H-benz[e]isoindole methanesulfonic acid salt], the results for the 50% inhibitory concentration (IC50) in the assay on norepinephrine uptake, in the assay on 5-HT (serotonin) uptake and in the assay with dopamine uptake were 454 nM, 13500 nM and 6720 nM, respectively.
Taken in the same sequence, the figures for `Cc1cccc(CC2NCC3c4ccccc4CCC23)c1` (stereo not drawn) [Example 11, cis-2,3,3a,4,5,9b-Hexahydro-3-(3-methylphenyl)methyl-1H-benz[e]isoindole hydrochloride] were 238 nM, 827 nM and 5140 nM.
Taken in the same sequence, the figures for `Cc1cccc(CC2C3CCc4ccccc4C3CN2C)c1` (stereo not drawn) [Example 12, cis-2,3,3a,4,5,9b-Hexahydro-2-methyl-3-(3-methylphenyl)methyl-1H-benz[e]isoindole hydrochloride] were 37 nM, 1780 nM and 571 nM.
For `CCN1CC2c3ccccc3CCC2C1Cc1cccc(C)c1` (stereo not drawn) [Example 13, cis-2 -Ethyl-2,3,3a,4,5,9b-hexahydro-3-(3-methylphenyl)methyl-1H-benz[e]isoindole hydrochloride], in that order: 18 nM, 507 nM and 148 nM.
`Fc1cccc(CC2NCC3c4ccccc4CCC23)c1` (stereo not drawn) [Example 15, cis-3-(3-Fluorophenyl)methyl-2,3,3a,4,5,9b-hexahydro-1H-benz[e]isoindole hydrochloride]: the IC50 stood at 347 nM with norepinephrine uptake, 15000 nM in the assay with 5-HT (serotonin) uptake and 7700 nM in the assay with dopamine uptake.
